{"source": "paper PMC7601999", "about": "(Journal of the American Chemical Society, 2020)", "key": {"NOD2 LRR [1]": {"target": "T1, NOD2 LRR (Homo sapiens, UniProt Q9HC29)", "T1 sequence (Q9HC29 765-1040 limits assumed)": "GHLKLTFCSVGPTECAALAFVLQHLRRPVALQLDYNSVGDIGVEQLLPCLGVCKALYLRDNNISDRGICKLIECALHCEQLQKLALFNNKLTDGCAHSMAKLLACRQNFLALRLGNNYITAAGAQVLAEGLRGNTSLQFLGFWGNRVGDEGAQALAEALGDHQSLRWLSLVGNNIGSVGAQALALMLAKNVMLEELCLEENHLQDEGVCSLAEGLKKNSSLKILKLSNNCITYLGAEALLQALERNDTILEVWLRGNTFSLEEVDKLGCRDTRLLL", "details": "read-out: Surface KD, NOD2, SPR, previously reported surface KD; cited from earlier work"}, "NLRP1 LRR": {"target": "T2, NLRP1 LRR (Homo sapiens, UniProt Q9C000)", "T2 sequence (Q9C000 791-990)": "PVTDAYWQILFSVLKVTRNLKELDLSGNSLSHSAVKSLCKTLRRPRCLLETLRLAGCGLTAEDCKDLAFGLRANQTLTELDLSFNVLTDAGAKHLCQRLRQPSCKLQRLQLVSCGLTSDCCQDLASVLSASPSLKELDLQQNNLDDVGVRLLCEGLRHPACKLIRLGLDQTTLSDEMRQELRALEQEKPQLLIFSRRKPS", "assay": "SPR assay, NLRP1 LRR binding to surface-tethered PG derivatives", "details": "for Decrease in affinity compared to intact MDP (1): NLRP1 LRR, SPR surface KD; for Binding to non-PG derived compound tethered to SPR surface: NLRP1, specificity control (Figure S8)"}, "[2]": {"tested_on": "NOD2 R877 to alanine mutant", "details": "R877A versus wild-type NOD2; cited from earlier work"}, "NOD2 LRR [3]": {"target": "T1, NOD2 LRR", "assay": "SPR assay, NOD2 LRR binding to surface-tethered PG derivatives", "details": "specificity control (Figure S8)"}}, "note": "Residues, ends and D or L forms follow the SMILES beside them.", "data": [{"compound": "1-amino MDP [Compound 6]", "values": [{"measurement": "Kd", "setting": "NOD2 LRR [1]", "result": "700 ± 100", "unit": "nM"}]}, {"compound": "6 -amino GlcNAc [Compound 2]", "values": [{"measurement": "Decrease in affinity compared to intact MDP (1)", "setting": "NLRP1 LRR", "result": 2, "unit": "fold"}, {"measurement": "Kd", "setting": "NOD2 LRR [1]", "result": "354 ± 40", "unit": "nM"}]}, {"compound": "6-amino MDP [Compound 1]", "values": [{"measurement": "Kd", "setting": "NOD2 LRR [1]", "result": "213 ± 24", "unit": "nM"}]}, {"compound": "CC(=O)N[C@H]1C(O)O[C@H](CO)[C@@H](O)[C@@H]1O[C@H](C)C(=O)N[C@@H](C)C(=O)N[C@H](CCC(=O)O)C(N)=O", "note": "(mixture of isomers) [MDP, muramyl dipeptide]", "values": [{"measurement": "Decrease in affinity of NOD2 for MDP on mutation of R877 to alanine", "setting": "[2]", "result": 4, "unit": "fold"}]}, {"compound": "C[C@H](N)C(=O)N[C@H](CCC(=O)O)C(N)=O", "note": "[Compound 3, L-ala D-iso dipeptide] (HELM PEPTIDE1{A.[dE].[am]}$$$$V2.0)", "values": [{"measurement": "Decrease in affinity compared to intact MDP (1)", "setting": "NLRP1 LRR", "result": 2, "unit": "fold"}, {"measurement": "Kd", "setting": "NOD2 LRR [1]", "result": "428 ± 49", "unit": "nM"}]}, {"compound": "C[C@H](N)C(=O)N[C@@H](C)C(=O)N[C@@H](C)C(=O)O", "note": "[L-alanine tripeptide, reference compound]", "values": [{"measurement": "Binding to non-PG derived compound tethered to SPR surface", "setting": "NLRP1 LRR", "result": "did not exhibit binding"}, {"measurement": "Binding to non-PG derived compound tethered to SPR surface", "setting": "NOD2 LRR [3]", "result": "did not exhibit binding"}]}, {"compound": "N[C@H]1C(O)O[C@H](CO)[C@H](O)[C@@H]1O", "note": "(some centres unmarked) [galactosamine, reference compound]", "values": [{"measurement": "Binding to non-PG derived compound tethered to SPR surface", "setting": "NLRP1 LRR", "result": "did not exhibit binding"}, {"measurement": "Binding to non-PG derived compound tethered to SPR surface", "setting": "NOD2 LRR [3]", "result": "did not exhibit binding"}]}]}
